Source: patent US20230085307A1, “PYRIDAZINONE COMPOUND AND HERBICIDE” (NISSAN CHEMICAL CORPORATION, priority 2019, published 2023)

Tests used:
[1] = test system: barnyard grass; assay: Test Example 3: herbicidal effect by foliage application, Wagner pot (Table 18, symbol H); type: in vivo, barnyard grass (Echinochloa crus-galli); conditions: 320 g/ha
Procedure, shortened: (§1)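 Plants were sown in alluvial soil held under 0.1–0.5 cm standing water and grown 14 days in a greenhouse at 25–30 °C. An emulsifiable formulation, water-diluted to the set dose, was then sprayed onto the foliage, and effects were scored three weeks later using previously defined criteria.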

[2] = test system: Chinese sprangletop; assay: Test Example 3: herbicidal effect by foliage application, Wagner pot (Table 18, symbol D); type: in vivo, chinese sprangletop (Leptochloa chinensis); conditions: 320 g/ha
Procedure, shortened: as §1

[3] = test system: rice flat sedge; assay: Test Example 3: herbicidal effect by foliage application, Wagner pot (Table 18, symbol E); type: in vivo, rice flat sedge (Cyperus iria); conditions: 320 g/ha
Procedure, shortened: as §1

[4] = test system: southern crabgrass; assay: Test Example 4: herbicidal effect by soil treatment (Table 19, symbol F); type: in vivo, southern crabgrass (Digitaria ciliaris); conditions: amount of applied herbicide 320 g/ha
Procedure, shortened: (§2)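 Pre-emergence style soil spray: seeds under ~1.5 cm sterilized diluvial soil received a uniform coat of emulsion diluted to the predetermined herbicide amount. Greenhouse 25–30° C; readout at week three on previously defined criteria.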

[5] = test system: green foxtail; assay: Test Example 4: herbicidal effect by soil treatment (Table 19, symbol G); type: in vivo, green foxtail (Setaria viridis); conditions: amount of applied herbicide 320 g/ha
Procedure, shortened: as §2

[6] = test system: barnyard grass; assay: Test Example 4: herbicidal effect by soil treatment (Table 19, symbol H); type: in vivo, barnyard grass (Echinochloa crus-galli); conditions: amount of applied herbicide 320 g/ha
Procedure, shortened: as §2

[7] = test system: wild oat; assay: Test Example 4: herbicidal effect by soil treatment (Table 19, symbol I); type: in vivo, wild oat (Avena fatua); conditions: amount of applied herbicide 320 g/ha
Procedure, shortened: as §2

[8] = test system: blackgrass; assay: Test Example 4: herbicidal effect by soil treatment (Table 19, symbol J); type: in vivo, blackgrass (Alopecurus myosuroides); conditions: amount of applied herbicide 320 g/ha
Procedure, shortened: as §2

[9] = test system: Italian ryegrass; assay: Test Example 4: herbicidal effect by soil treatment (Table 19, symbol K); type: in vivo, Italian ryegrass (Lolium multiflorum); conditions: amount of applied herbicide 320 g/ha
Procedure, shortened: as §2

[10] = test system: windgrass; assay: Test Example 4: herbicidal effect by soil treatment (Table 19, symbol L); type: in vivo, windgrass (Apera spica-venti); conditions: amount of applied herbicide 320 g/ha
Procedure, shortened: as §2

[11] = test system: velvetleaf; assay: Test Example 4: herbicidal effect by soil treatment (Table 19, symbol M); type: in vivo, velvetleaf (Abutilon theophrasti); conditions: amount of applied herbicide 320 g/ha
Procedure, shortened: as §2

[12] = test system: redroot pigweed; assay: Test Example 4: herbicidal effect by soil treatment (Table 19, symbol N); type: in vivo, redroot pigweed (Amaranthus retroflexus); conditions: amount of applied herbicide 320 g/ha
Procedure, shortened: as §2

[13] = test system: lambsquarters; assay: Test Example 4: herbicidal effect by soil treatment (Table 19, symbol O); type: in vivo, lambsquarters (Chenopodium album); conditions: amount of applied herbicide 320 g/ha
Procedure, shortened: as §2

[14] = test system: chickweed; assay: Test Example 4: herbicidal effect by soil treatment (Table 19, symbol P); type: in vivo, common chickweed (Stellaria media); conditions: amount of applied herbicide 320 g/ha
Procedure, shortened: as §2

[15] = test system: persian speedwell; assay: Test Example 4: herbicidal effect by soil treatment (Table 19, symbol R); type: in vivo, Persian speedwell (Veronica persica); conditions: amount of applied herbicide 320 g/ha
Procedure, shortened: as §2

[16] = test system: southern crabgrass; assay: Test Example 5: herbicidal effect by foliage application, plastic box (Table 20, symbol F); type: in vivo, southern crabgrass (Digitaria ciliaris); conditions: amount of applied herbicide 320 g/ha; foliage application after 14-day growth; evaluated three weeks after application
Procedure, shortened: (§3)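 Plants were sown into sterilized diluvial soil under about 1.5 cm cover and kept in a greenhouse at 25° C. to 30° C. Fourteen days on, foliage received an even spray of the diluted emulsion. Herbicidal or crop effect was judged three weeks afterwards.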

[17] = test system: green foxtail; assay: Test Example 5: herbicidal effect by foliage application, plastic box (Table 20, symbol G); type: in vivo, green foxtail (Setaria viridis); conditions: amount of applied herbicide 320 g/ha; foliage application after 14-day growth; evaluated three weeks after application
Procedure, shortened: as §3

[18] = test system: barnyard grass; assay: Test Example 5: herbicidal effect by foliage application, plastic box (Table 20, symbol H); type: in vivo, barnyard grass (Echinochloa crus-galli); conditions: amount of applied herbicide 320 g/ha; foliage application after 14-day growth; evaluated three weeks after application
Procedure, shortened: as §3

[19] = test system: wild oat; assay: Test Example 5: herbicidal effect by foliage application, plastic box (Table 20, symbol I); type: in vivo, wild oat (Avena fatua); conditions: amount of applied herbicide 320 g/ha; foliage application after 14-day growth; evaluated three weeks after application
Procedure, shortened: as §3

[20] = test system: blackgrass; assay: Test Example 5: herbicidal effect by foliage application, plastic box (Table 20, symbol J); type: in vivo, blackgrass (Alopecurus myosuroides); conditions: amount of applied herbicide 320 g/ha; foliage application after 14-day growth; evaluated three weeks after application
Procedure, shortened: as §3

[21] = test system: Italian ryegrass; assay: Test Example 5: herbicidal effect by foliage application, plastic box (Table 20, symbol K); type: in vivo, Italian ryegrass (Lolium multiflorum); conditions: amount of applied herbicide 320 g/ha; foliage application after 14-day growth; evaluated three weeks after application
Procedure, shortened: as §3

[22] = test system: windgrass; assay: Test Example 5: herbicidal effect by foliage application, plastic box (Table 20, symbol L); type: in vivo, windgrass (Apera spica-venti); conditions: amount of applied herbicide 320 g/ha; foliage application after 14-day growth; evaluated three weeks after application
Procedure, shortened: as §3

[23] = test system: velvetleaf; assay: Test Example 5: herbicidal effect by foliage application, plastic box (Table 20, symbol M); type: in vivo, velvetleaf (Abutilon theophrasti); conditions: amount of applied herbicide 320 g/ha; foliage application after 14-day growth; evaluated three weeks after application
Procedure, shortened: as §3

[24] = test system: redroot pigweed; assay: Test Example 5: herbicidal effect by foliage application, plastic box (Table 20, symbol N); type: in vivo, redroot pigweed (Amaranthus retroflexus); conditions: amount of applied herbicide 320 g/ha; foliage application after 14-day growth; evaluated three weeks after application
Procedure, shortened: as §3

[25] = test system: lambsquarters; assay: Test Example 5: herbicidal effect by foliage application, plastic box (Table 20, symbol O); type: in vivo, lambsquarters (Chenopodium album); conditions: amount of applied herbicide 320 g/ha; foliage application after 14-day growth; evaluated three weeks after application
Procedure, shortened: as §3

[26] = test system: chickweed; assay: Test Example 5: herbicidal effect by foliage application, plastic box (Table 20, symbol P); type: in vivo, common chickweed (Stellaria media); conditions: amount of applied herbicide 320 g/ha; foliage application after 14-day growth; evaluated three weeks after application
Procedure, shortened: as §3

[27] = test system: persian speedwell; assay: Test Example 5: herbicidal effect by foliage application, plastic box (Table 20, symbol R); type: in vivo, Persian speedwell (Veronica persica); conditions: amount of applied herbicide 320 g/ha; foliage application after 14-day growth; evaluated three weeks after application
Procedure, shortened: as §3

| SMILES | herbicidal effect on barnyard grass (H) [1] | herbicidal effect on Chinese sprangletop (D) [2] | herbicidal effect on rice flat sedge (E) [3] | F: southern crabgrass, herbicidal effect grade [4] | G: green foxtail, herbicidal effect grade [5] | H: barnyard grass, herbicidal effect grade [6] | I: wild oat, herbicidal effect grade [7] | J: blackgrass, herbicidal effect grade [8] | K: Italian ryegrass, herbicidal effect grade [9] | L: windgrass, herbicidal effect grade [10] | M: velvetleaf, herbicidal effect grade [11] | N: redroot pigweed, herbicidal effect grade [12] | O: lambsquarters, herbicidal effect grade [13] | P: chickweed, herbicidal effect grade [14] | R: persian speedwell, herbicidal effect grade [15] | Herbicidal effect by foliage application, F: southern crabgrass [16] | Herbicidal effect by foliage application, G: green foxtail [17] | Herbicidal effect by foliage application, H: barnyard grass [18] | Herbicidal effect by foliage application, I: wild oat [19] | Herbicidal effect by foliage application, J: blackgrass [20] | also measured |
| --- | --- | --- | --- | --- | --- | --- | --- | --- | --- | --- | --- | --- | --- | --- | --- | --- | --- | --- | --- | --- | --- |
| Cc1nn(C)c(=O)c(-c2c(-c3ccc(C(F)(F)F)cc3)sc3cc(F)c(F)cc23)c1O [5-007] | 4 (Herbicidal rate of 70% or more and less than 90%) | 1 (Herbicidal rate of 5% or more and less than 20%) | 2 (Herbicidal rate of 20% or more and less than 40%) | 0 (Herbicidal rate of 5% or less (almost no effect)) | 3 (Herbicidal rate of 40% or more and less than 70%) | 0 (Herbicidal rate of 5% or less (almost no effect)) | 0 (Herbicidal rate of 5% or less (almost no effect)) | 0 (Herbicidal rate of 5% or less (almost no effect)) | 0 (Herbicidal rate of 5% or less (almost no effect)) | 0 (Herbicidal rate of 5% or less (almost no effect)) | 0 (Herbicidal rate of 5% or less (almost no effect)) | 3 (Herbicidal rate of 40% or more and less than 70%) | 1 (Herbicidal rate of 5% or more and less than 20%) | 3 (Herbicidal rate of 40% or more and less than 70%) | 3 (Herbicidal rate of 40% or more and less than 70%) | 5 (Herbicidal rate of 90% or more (almost completely withered)) | 4 (Herbicidal rate of 70% or more and less than 90%) | 3 (Herbicidal rate of 40% or more and less than 70%) | 2 (Herbicidal rate of 20% or more and less than 40%) | 0 (Herbicidal rate of 5% or less (almost no effect)) | Herbicidal effect by foliage application, K: Italian ryegrass [21]: 0 (Herbicidal rate of 5% or less (almost no effect)); Herbicidal effect by foliage application, L: windgrass [22]: 4 (Herbicidal rate of 70% or more and less than 90%); Herbicidal effect by foliage application, M: velvetleaf [23]: 3 (Herbicidal rate of 40% or more and less than 70%); Herbicidal effect by foliage application, N: redroot pigweed [24]: 5 (Herbicidal rate of 90% or more (almost completely withered)); Herbicidal effect by foliage application, O: lambsquarters [25]: 5 (Herbicidal rate of 90% or more (almost completely withered)); Herbicidal effect by foliage application, P: chickweed [26]: 5 (Herbicidal rate of 90% or more (almost completely withered)); Herbicidal effect by foliage application, R: persian speedwell [27]: 5 (Herbicidal rate of 90% or more (almost completely withered)) |
| CC(=O)COc1ccc(-c2sc3cc(F)c(F)cc3c2-c2c(O)c(C)nn(C)c2=O)cc1 [5-023] | 4 (Herbicidal rate of 70% or more and less than 90%) | 3 (Herbicidal rate of 40% or more and less than 70%) | 0 (Herbicidal rate of 5% or less (almost no effect)) | 0 (Herbicidal rate of 5% or less (almost no effect)) | 0 (Herbicidal rate of 5% or less (almost no effect)) | 0 (Herbicidal rate of 5% or less (almost no effect)) | 0 (Herbicidal rate of 5% or less (almost no effect)) | 0 (Herbicidal rate of 5% or less (almost no effect)) | 0 (Herbicidal rate of 5% or less (almost no effect)) | 0 (Herbicidal rate of 5% or less (almost no effect)) | 0 (Herbicidal rate of 5% or less (almost no effect)) | 3 (Herbicidal rate of 40% or more and less than 70%) | 2 (Herbicidal rate of 20% or more and less than 40%) | 3 (Herbicidal rate of 40% or more and less than 70%) | 0 (Herbicidal rate of 5% or less (almost no effect)) | 0 (Herbicidal rate of 5% or less (almost no effect)) | 4 (Herbicidal rate of 70% or more and less than 90%) | 1 (Herbicidal rate of 5% or more and less than 20%) | 0 (Herbicidal rate of 5% or less (almost no effect)) | 0 (Herbicidal rate of 5% or less (almost no effect)) | Herbicidal effect by foliage application, K: Italian ryegrass [21]: 0 (Herbicidal rate of 5% or less (almost no effect)); Herbicidal effect by foliage application, L: windgrass [22]: 0 (Herbicidal rate of 5% or less (almost no effect)); Herbicidal effect by foliage application, M: velvetleaf [23]: 5 (Herbicidal rate of 90% or more (almost completely withered)); Herbicidal effect by foliage application, N: redroot pigweed [24]: 5 (Herbicidal rate of 90% or more (almost completely withered)); Herbicidal effect by foliage application, O: lambsquarters [25]: 3 (Herbicidal rate of 40% or more and less than 70%); Herbicidal effect by foliage application, P: chickweed [26]: 5 (Herbicidal rate of 90% or more (almost completely withered)); Herbicidal effect by foliage application, R: persian speedwell [27]: 3 (Herbicidal rate of 40% or more and less than 70%) |
